The source of these data is patent publication US10780074B2, “Compounds and uses thereof” (Sunovion Pharmaceuticals Inc., priority 2017, dated 2020).

The structures appear in SMILES notation. Counter-ions that a name gives are not always drawn. Like-named read-outs stand apart in the source and are kept apart here.

This assay relates to behaviors of compound-treated mice. Nature of the assay: Neuropharmacological Assay (SmartCube). The class given is in vivo. The following applies: for minimal effective dose: Mus musculus, ip, 0.25 h, dose having 50% or more total activity in SmartCube, read-out: MED (minimal effective dose). In outline:
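Behavioral signatures were captured automatically by video, and each drug class received a probability for the best of three i.p. doses given 15 min pre-test (vehicle: Pharmasolve/PEG/propylene glycol). Potency is given as MED, the lowest mpk dose (typically 0.3–30) reaching 50% or more total activity.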

Where [1] appears, read: i.p. 15 min before behavioral test, most efficacious dose(s) of 3 doses.
Where [2] appears, read: SmartCube, i.p. 15 min before test, most efficacious dose(s).

As for `NC[C@@H]1OCCCc2c(-c3cncs3)cccc21` (single isomer, unassigned) [Compound 170, hydrochloride salt], the minimal effective dose (commonly the lowest level tested that produced the effect sought) (i.p.) lay in the range of 3 to 10 mg/kg. Under setting [1], the “AD: ADHD (probability that activity matches class)” value (from here on “AD: ADHD”) was “+ (LOQ ≤ + <5%)”, the “AG: analgesic (probability that activity matches class)” value (“AG: analgesic” for short) is recorded as “+ (LOQ ≤ + <5%)”, the “AX: anxiolytic (probability that activity matches class)” value (from here on “AX: anxiolytic”) is recorded as “++ (5% ≤ ++ <25%)” and the “CE: cognitive enhancer (probability that activity matches class)” value (shortened to “CE: cognitive enhancer”) is given as “+ (LOQ ≤ + <5%)”. Further, under setting [1], the “DP: anti-depressant (probability that activity matches class)” value (“DP: anti-depressant” below) was “++ (5% ≤ ++ <25%)”, the “MS: mood stabilizer (probability that activity matches class)” value (shortened to “MS: mood stabilizer”) is given as “+ (LOQ ≤ + <5%)”, the “PS: anti-psychotic (probability that activity matches class)” value (“PS: anti-psychotic” for short) is listed as “+ (LOQ ≤ + <5%)” and the “SD: sedative hypnotic (probability that activity matches class)” value (shortened to “SD: sedative hypnotic”) is “++ (5% ≤ ++ <25%)”. Moreover, under setting [1], the “UN: uncharacterized CNS activity (probability that activity matches class)” value (shortened to “UN: uncharacterized CNS activity”) is reported as “+++ (25% ≤ +++ <50%)”.
Take `CNC[C@@H]1OCc2c(-c3cccnc3)cccc21` [Compound 33, (R)—N-Methyl-1-(4-(pyridin-3-yl)-1,3-dihydroisobenzofuran-1-yl)methanamine hydrochloride salt]: the minimal effective dose (i.p.) lay within 10 to 30 mg/kg. Under setting [1], the “AD: ADHD” value was “+ (LOQ ≤ + <5%)”, the “AG: analgesic” value is reported as “+ (LOQ ≤ + <5%)”, the “AX: anxiolytic” value was “++ (5% ≤ ++ <25%)” and the “CE: cognitive enhancer” value is “+ (LOQ ≤ + <5%)”. Under setting [1], the “DP: anti-depressant” value is listed as “++++ (50% ≤ ++++)”, the “MS: mood stabilizer” value is “+ (LOQ ≤ + <5%)”, the “PS: anti-psychotic” value was “+ (LOQ ≤ + <5%)” and the “SD: sedative hypnotic” value was “+ (LOQ ≤ + <5%)”. In addition, the “UN: uncharacterized CNS activity” value under setting [1] is recorded as “+ (LOQ ≤ + <5%)”.
In the case of `CNC[C@@H]1OCCc2c(-c3ccncn3)cccc21` (single isomer, unassigned) [Compound 72, hydrochloride salt], the minimal effective dose (i.p.) is over 30 mg/kg. In addition, under setting [1], the “AD: ADHD” value is given as “+ (LOQ ≤ + <5%)”, the “AG: analgesic” value is recorded as “+ (LOQ ≤ + <5%)”, the “AX: anxiolytic” value is “+ (LOQ ≤ + <5%)” and the “CE: cognitive enhancer” value is listed as “+ (LOQ ≤ + <5%)”. Under setting [1], the “DP: anti-depressant” value is “+ (LOQ ≤ + <5%)”, the “MS: mood stabilizer” value was “+ (LOQ ≤ + <5%)”, the “PS: anti-psychotic” value was “+ (LOQ ≤ + <5%)” and the “SD: sedative hypnotic” value is on record as “+ (LOQ ≤ + <5%)”. Besides, under setting [1], the “UN: uncharacterized CNS activity” value is “+ (LOQ ≤ + <5%)”.
Consider `Cl.NC[C@@H]1OCCc2c(-c3ncco3)cccc21` [Compound 106, (R)-(5-(Oxazol-2-yl)isochroman-1-yl)methanamine hydrochloride salt], for which the minimal effective dose (i.p.) was in the range of 10 to 30 mg/kg. For the same molecule, under setting [1], the “AD: ADHD” value is on record as “+ (LOQ ≤ + <5%)”, the “AG: analgesic” value is on record as “+ (LOQ ≤ + <5%)”, the “AX: anxiolytic” value is reported as “+++ (25% ≤ +++ <50%)” and the “CE: cognitive enhancer” value is reported as “++ (5% ≤ ++ <25%)”. In addition, under setting [1], the “DP: anti-depressant” value is on record as “++ (5% ≤ ++ <25%)”, the “MS: mood stabilizer” value is “+ (LOQ ≤ + <5%)”, the “PS: anti-psychotic” value is “+ (LOQ ≤ + <5%)” and the “SD: sedative hypnotic” value was “+ (LOQ ≤ + <5%)”. The “UN: uncharacterized CNS activity” value under setting [1] is “+ (LOQ ≤ + <5%)”.
For `CNC[C@@H]1OCCc2c(-c3ccccc3)cccc21` (single isomer, unassigned) [Compound 128, hydrochloride salt], the minimal effective dose (i.p.) was 10 to 30 mg/kg. Besides, under setting [1], the “AD: ADHD” value is “+ (LOQ ≤ + <5%)”, the “AG: analgesic” value was “+ (LOQ ≤ + <5%)”, the “AX: anxiolytic” value is recorded as “+ (LOQ ≤ + <5%)” and the “CE: cognitive enhancer” value is “+ (LOQ ≤ + <5%)”. In addition, under setting [1], the “DP: anti-depressant” value is reported as “+ (LOQ ≤ + <5%)”, the “MS: mood stabilizer” value is “+ (LOQ ≤ + <5%)”, the “PS: anti-psychotic” value is “+ (LOQ ≤ + <5%)” and the “SD: sedative hypnotic” value was “+ (LOQ ≤ + <5%)”. In addition, under setting [1], the “UN: uncharacterized CNS activity” value was “+ (LOQ ≤ + <5%)”.
As for `CNC[C@H]1OCCc2c(-c3ccno3)cccc21` [Compound 95, (S)-1-(5-(Isoxazol-5-yl)isochroman-1-yl)-N-methylmethanamine], the minimal effective dose (i.p.) is at most 3 mg/kg. For the same molecule, under setting [1], the “AD: ADHD” value is reported as “++++ (50% ≤ ++++)”, the “AG: analgesic” value is reported as “+ (LOQ ≤ + <5%)”, the “AX: anxiolytic” value is listed as “++ (5% ≤ ++ <25%)” and the “CE: cognitive enhancer” value was “+ (LOQ ≤ + <5%)”. For the same molecule, under setting [1], the “DP: anti-depressant” value is reported as “++++ (50% ≤ ++++)”, the “MS: mood stabilizer” value is “+ (LOQ ≤ + <5%)”, the “PS: anti-psychotic” value is listed as “+ (LOQ ≤ + <5%)” and the “SD: sedative hypnotic” value is “++ (5% ≤ ++ <25%)”. Further, the “UN: uncharacterized CNS activity” value under setting [1] is recorded as “++ (5% ≤ ++ <25%)”.
As to `NC[C@H]1OCCCc2c(-c3ccncc3)cccc21` (single isomer, unassigned) [Compound 151], the minimal effective dose (i.p.) lay within 3 to 10 mg/kg. Under setting [1], the “AD: ADHD” value is “+ (LOQ ≤ + <5%)”, the “AG: analgesic” value is on record as “+ (LOQ ≤ + <5%)”, the “AX: anxiolytic” value was “++ (5% ≤ ++ <25%)” and the “CE: cognitive enhancer” value is on record as “+ (LOQ ≤ + <5%)”. In addition, under setting [1], the “DP: anti-depressant” value is “++++ (50% ≤ ++++)”, the “MS: mood stabilizer” value is “+ (LOQ ≤ + <5%)”, the “PS: anti-psychotic” value was “+ (LOQ ≤ + <5%)” and the “SD: sedative hypnotic” value is listed as “+ (LOQ ≤ + <5%)”. Under setting [1], the “UN: uncharacterized CNS activity” value is “+ (LOQ ≤ + <5%)”.
For the molecule `CNC[C@@H]1OCCc2c(-c3ccccn3)cccc21` (single isomer, unassigned) [Compound 43, hydrochloride salt], for the setting “i.p.”, the minimal effective dose was in the range of 10 to 30 mg/kg. Also, under setting [1], the “AD: ADHD” value was “+ (LOQ ≤ + <5%)”, the “AG: analgesic” value is reported as “+ (LOQ ≤ + <5%)”, the “AX: anxiolytic” value was “++ (5% ≤ ++ <25%)” and the “CE: cognitive enhancer” value is recorded as “+ (LOQ ≤ + <5%)”. Also, under setting [1], the “DP: anti-depressant” value is listed as “++ (5% ≤ ++ <25%)”, the “MS: mood stabilizer” value is listed as “+ (LOQ ≤ + <5%)”, the “PS: anti-psychotic” value is “+ (LOQ ≤ + <5%)” and the “SD: sedative hypnotic” value is on record as “+ (LOQ ≤ + <5%)”. Besides, the “UN: uncharacterized CNS activity” value under setting [1] is reported as “+++ (25% ≤ +++ <50%)”.
For `NC[C@H]1OCCc2c(-c3ccnnc3)cccc21` (single isomer, unassigned) [Compound 79, hydrochloride salt], the minimal effective dose (i.p.) fell in the range of 3 to 10 mg/kg. Moreover, under setting [1], the “AD: ADHD” value is “+ (LOQ ≤ + <5%)”, the “AG: analgesic” value is listed as “+ (LOQ ≤ + <5%)”, the “AX: anxiolytic” value is given as “+ (LOQ ≤ + <5%)” and the “CE: cognitive enhancer” value is recorded as “+ (LOQ ≤ + <5%)”. Under setting [1], the “DP: anti-depressant” value was “++ (5% ≤ ++ <25%)”, the “MS: mood stabilizer” value was “+ (LOQ ≤ + <5%)”, the “PS: anti-psychotic” value is reported as “+ (LOQ ≤ + <5%)” and the “SD: sedative hypnotic” value is “+ (LOQ ≤ + <5%)”. Also, the “UN: uncharacterized CNS activity” value under setting [1] is recorded as “+ (LOQ ≤ + <5%)”.
Regarding `CNC[C@@H]1OCCc2ccc(-c3ccncc3)cc21` [Compound 49, (R)—N-Methyl-1-(7-(pyridin-4-yl)isochroman-1-yl)methanamine hydrochloride], the minimal effective dose (i.p.) was at most 3 mg/kg. In addition, under setting [1], the “AD: ADHD” value was “+ (LOQ ≤ + <5%)”, the “AG: analgesic” value is “++ (5% ≤ ++ <25%)”, the “AX: anxiolytic” value was “++ (5% ≤ ++ <25%)” and the “CE: cognitive enhancer” value is reported as “++ (5% ≤ ++ <25%)”. Also, under setting [1], the “DP: anti-depressant” value was “++ (5% ≤ ++ <25%)”, the “MS: mood stabilizer” value is given as “+ (LOQ ≤ + <5%)”, the “PS: anti-psychotic” value is on record as “++ (5% ≤ ++ <25%)” and the “SD: sedative hypnotic” value is recorded as “+ (LOQ ≤ + <5%)”. Moreover, under setting [1], the “UN: uncharacterized CNS activity” value is on record as “++++ (50% ≤ ++++)”.
As to `c1cc(-c2ccncc2)c2c(c1)[C@@H](CNC1CC1)OCC2` (single isomer, unassigned) [Compound 181, hydrochloride salt], the minimal effective dose was at most 3 mg/kg. Under setting [2], the “AD: ADHD” value is listed as “++ (5% ≤ ++ <25%)”, the “AG: analgesic” value is reported as “+ (LOQ ≤ + <5%)”, the “AX: anxiolytic” value was “+ (LOQ ≤ + <5%)” and the “CE: cognitive enhancer” value is listed as “+ (LOQ ≤ + <5%)”. Under setting [2], the “DP: anti-depressant” value is listed as “++++ (50% ≤ ++++)”, the “MS: mood stabilizer” value was “+ (LOQ ≤ + <5%)”, the “PS: anti-psychotic” value is listed as “+ (LOQ ≤ + <5%)” and the “SD: sedative hypnotic” value is on record as “+ (LOQ ≤ + <5%)”. Besides, the “UN: uncharacterized CNS activity” value under setting [2] is listed as “++ (5% ≤ ++ <25%)”.
